The record followed here is paper PMC5770468, “Cardiac glycoside/aglycones inhibit HIV-1 gene expression by a mechanism requiring MEK1/2-ERK1/2 signaling” (Scientific Reports, 2018).

This assay has as its system HIV-1 Gag expression. The assay is described as follows: HIV-1 Gag-GFP expression in HeLa rtTA-HIV(Gag-GFP) cells. The following applies: 220 nM. The format is cell-based. The procedure:
Figure 7 Activation of the MEK1/2-ERK1/2 signaling pathway suppresses HIV-1 gene expression. HeLa rtTA-HIV(Gag-GFP) cells were pre-treated overnight (~15 h) with/without an inhibitor of MEK1/2 (12 μM U0126, MEKi, white), p38α/β/β2 (15 μM SB203580, p38i, light gray), JNK1/2/3 (1.25 μM SP600125, JNKi, hatched), or NCX (5 μM KB-R7943, NCXi, gray) and treated with a MEK1/2-ERK1/2 activator, anisomycin, to isolate the pathway signal as described (and run in parallel for verification of inhibitor activity) in Figures 6 and 5d–f. Cells were monitored for HIV-1 gene expression by detecting Gag-GFP fluorescence in cell lysates (35 μg) resolved on reducing SDS-PAGE, levels of ERK activation by immunoblotting of phospho- and total-ERK from cell lysates, and extent of viral RNA expression by qRT-PCR of mRNAs extracted. […] RNAs were quantified by qRT-PCR as described in Figures 4a,b. […]
Using the same methods and conditions described for HeLa rtTA-HIV-ΔMls cells, HeLa rtTA-HIV(Gag-GFP) cells were seeded in 48-/12-well plates and pretreated with/without pathway inhibitor prior to treatment with drug/compounds and Dox. […] HIV-1 gene expression was determined by detecting Gag-GFP fluorescence in cells by plate scans using a Typhoon Imager 9400 (Amersham Biosciences) or Typhoon FLA 9400 (GE) on ImageQuant, cell lysates by SDS-PAGE captured on ChemiDoc MP, or cell lysates by p24^CA ELISA. […]

`COc1ccc(C[C@H]2NC[C@H](O)[C@H]2OC(C)=O)cc1` [anisomycin, Anisomycin]: the “HIV-1 Gag expression” value is listed as “inhibited”.
